Source: patent US20080287445A1, “Prokineticin 2 receptor antagonists” (priority 2005, published 2008)
Values joined by “and” are separate entries in the source; they are usually repeats but may differ in a detail not shown here. Identical values can stand only once.

Molecular target: T1, GPR73 (prokineticin 1 receptor) (Homo sapiens, UniProt Q8TCW9)
T1 construct: expressed in transfected cells; host or cells: HEK 293
Assay: PK1 functional assay: Ca2+ mobilization screening for PK1 antagonists on the FLIPR
Assay type: cell-based
Details: HEK 293 GPR73 cells, multiple values = multiple testing; for inhibition at 10 µM: HEK293, 10 μM compound, read-out: Ca^2+ Mobilization % Inh @ 10 μM; for IC50: PK1 ligand preparation at its EC50, read-out: Ca^2+ Mobilization IC50; for Ca^2+ Mobilization % Inh @ 10 μM: 10 μM compound
Method in brief: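 HEK293 cells expressing human GPR73 were loaded with Calcium Plus dye, then on FLIPR given compound for 4 min 15 s before PK1 ligand at its predetermined EC50. Baseline-subtracted fluorescence over 1 min 45 s gave percent inhibition versus maximal signal; IC50 fitted.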

T1 sequence (Q8TCW9 whole entry, species assumed): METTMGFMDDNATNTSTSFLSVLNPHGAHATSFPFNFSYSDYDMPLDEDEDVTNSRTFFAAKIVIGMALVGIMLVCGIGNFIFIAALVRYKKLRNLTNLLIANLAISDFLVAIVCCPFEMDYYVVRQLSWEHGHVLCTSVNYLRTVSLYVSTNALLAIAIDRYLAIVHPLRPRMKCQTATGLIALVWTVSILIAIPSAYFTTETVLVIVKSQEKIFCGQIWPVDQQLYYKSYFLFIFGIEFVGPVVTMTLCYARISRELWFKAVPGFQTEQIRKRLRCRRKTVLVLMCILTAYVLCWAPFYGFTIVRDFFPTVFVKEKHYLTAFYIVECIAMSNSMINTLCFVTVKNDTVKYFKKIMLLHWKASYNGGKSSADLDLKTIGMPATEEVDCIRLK

SMILES	inhibition at 10 µM [%]	IC50	Ca^2+ Mobilization % Inh @ 10 μM
COc1ccc(Cn2c(NCc3ccc[n+]([O-])c3N)nc(=O)n(Cc3ccc(OC)cc3)c2=O)cc1 [Cpd 32]	78	1.22 µM	–
COc1ccc(Cn2c(NCc3cccnc3N)nc(=O)n(Cc3cccc(OC)c3)c2=O)cc1 [Cpd 42]	49	> 10 µM	–
COc1ccc(Cn2c(=O)nc(NCc3cnc(C)cc3C)n(Cc3ccc(Cl)cc3)c2=O)cc1 [Cpd 117]	97	0.218 µM	–
COc1ccc(Cn2c(=O)nc(NCc3cccnc3N)n(Cc3cccc([N+](=O)[O-])c3)c2=O)cc1 [Cpd 82]	38	> 10 µM	–
COc1ccc(Cn2c(NCc3cnc(C)cc3C)nc(=O)n(Cc3ccc4[nH]ccc4c3)c2=O)cc1 [Cpd 229]	41	> 10 µM	–
COCCCCCn1c(=O)nc(NCc2cnc(C)cc2C)n(Cc2ccc(OC)cc2)c1=O [Cpd 197]	54	2.84 µM	–
CCCCNc1ncccc1CNc1nc(=O)n(Cc2ccc(F)cc2)c(=O)n1Cc1ccc(OC)cc1 [Cpd 16]	89	0.348 µM	–
Nc1cc(Cn2c(=O)nc(NCc3cccnc3N)n(Cc3ccc(OC(F)F)cc3)c2=O)ccc1O [Cpd 268]	24	> 10 µM	–
COc1ccc(Cn2c(SCc3cccnc3N)cc(=O)n(Cc3ccc(OC)cc3)c2=O)cc1 [Cpd 249]	90	0.194 µM	–
CCCNc1cccc(CNc2nc(=O)n(Cc3ccc(OC)cc3)c(=O)n2Cc2ccc(OC)cc2)n1 [Cpd 147, 1,3-Bis-(4-methoxy-benzyl)-6-[(6-propylamino-pyridin-2-ylmethyl)-amino]-1H-[1,3,5]triazine-2,4-dione]	99	0.11 µM	–
COc1ccc(Cn2c(=O)nc(NCc3cccnc3N)n(Cc3ccc4[nH]ccc4c3)c2=O)cc1 [Cpd 127]	81	0.607 µM	–
C=CCC(c1ccc(OC)cc1)n1c(=O)nc(NCc2cccnc2N)n(Cc2ccc(OC)cc2)c1=O (stereo not shown) [Cpd 48]	75	0.956 µM	–
COc1ccc(Cn2c(=O)nc(NCc3cnc(C)cc3C)n(Cc3ccc4occc4c3)c2=O)cc1 [Cpd 129]	88	0.12 µM	–
COc1ccc(Cn2c(NCc3cnc(C)cc3C)nc(=O)n(Cc3ccc4snnc4c3)c2=O)cc1 [Cpd 217]	81	1.01 µM	–
COc1ccc(Cn2c(NCc3ccccn3)nc(=O)n(Cc3ccc(OC)cc3)c2=O)cc1 [Cpd 39]	92	0.063 µM and 0.082 µM	95%
COc1ccc(Cn2c(NCc3cccnc3N3CCOCC3)nc(=O)n(Cc3ccc(F)cc3)c2=O)cc1 [Cpd 17]	73	2.43 µM	–
COc1ccc(Cn2c(NCc3cccnc3N)nc(=O)n(Cc3ccc(O)cc3)c2=O)cc1 [Cpd 54, 6-[(2-Amino-pyridin-3-ylmethyl)-amino]-3-(4-hydroxy-benzyl)-1-(4-methoxy-benzyl)-1H-[1,3,5]triazine-2,4-dione]	–	3.47 µM and > 10 µM	42% and 64%
COc1ccc(Cn2c(NCc3cnc(C)cc3C)nc(=O)n(Cc3ccc(OC)cc3)c2=O)cc1 [Cpd 22, 6-[(4,6-Dimethyl-pyridin-3-ylmethyl)-amino]-1,3-bis-(4-methoxy-benzyl)-1H-[1,3,5]triazine-2,4-dione]	88	–	96% and 97%
COc1ccc(Cn2c(NCc3cccnc3NCc3ccco3)nc(=O)n(Cc3ccc(OC)cc3)c2=O)cc1 [Cpd 69]	93	0.337 µM	–
Cc1cc(C)c(CNc2nc(=O)n(Cc3ccc4occc4c3)c(=O)n2Cc2ccc3c(c2)CCO3)c(N)n1 [Cpd 186]	99	0.074 µM and 0.097 µM	100%
COc1ccc(Cn2c(CCc3cnccc3N)cc(=O)n(Cc3ccc(OC)cc3)c2=O)cc1 [Cpd 214]	53	7.16 µM	–
Cc1cc(C)c(CNc2nc(=O)n(Cc3ccc(CO)cc3)c(=O)n2Cc2ccc(OC(F)F)cc2)cn1 [Cpd 191]	50	8.37 µM	–
COCCCCCn1c(NCc2c(C)cc(C)nc2N)nc(=O)n(Cc2ccc(Cl)cc2)c1=O [Cpd 253]	97	0.009 µM	–
COc1ccc(Cn2c(NCc3cccnc3NCCC(C)C)nc(=O)n(Cc3ccc(OC)cc3)c2=O)cc1 [Cpd 67]	55	4.82 µM	–
COc1ccc(Cn2c(NCc3cnc(C)cc3C)nc(=O)n(Cc3ccc4sccc4c3)c2=O)cc1 [Cpd 146]	80	2.14 µM	–
COc1ccc(Cn2c(=O)nc(NCc3cccnc3N)n(Cc3ccc(OC)cc3OC)c2=O)cc1 [Cpd 200]	87	0.304 µM	–
COCCCCCn1c(=O)nc(NCc2cnc(C)cc2C)n(Cc2ccc(OC(F)F)cc2)c1=O [Cpd 198]	64	1.04 µM	–
COc1ccc(Cn2c(NCc3cnccc3C)nc(=O)n(Cc3ccc(OC)cc3)c2=O)cc1 [Cpd 201]	95	0.327 µM	–

SMILES	inhibition at 10 µM [%]	IC50	Ca^2+ Mobilization % Inh @ 10 μM
COc1ccc(Cn2c(NCc3c(N)nc(C)c(C)c3C)nc(=O)n(Cc3ccc(OC)cc3)c2=O)cc1 [Cpd 263]	99	0.094 µM	–
COc1ccc(Cn2c(=O)nc(NCc3cccnc3N)n(Cc3ccc4occc4c3)c2=O)cc1 [Cpd 126]	89	0.232 µM	–
COc1ccc(Cn2c(=O)nc(NCc3cccnc3N)n(Cc3ccc(OC(F)(F)F)cc3)c2=O)cc1 [Cpd 38]	91	0.391 µM	–
COc1ccc(Cn2c(NCc3cccnc3N)nc(=O)n(Cc3ccc([N+](=O)[O-])cc3)c2=O)cc1 [Cpd 47]	80	0.826 µM	–
COc1ccc(Cn2c(NCc3cccnc3N)nc(=O)n(Cc3ccc(OC(F)(F)F)cc3)c2=O)cc1 [Cpd 45]	40	> 10 µM	–
COc1ccc(Cn2c(=O)nc(NCc3cnc(C)cc3C)n(Cc3ccc(F)cc3)c2=O)cc1 [Cpd 116]	95	0.391 µM	–
COc1ccc(Cn2c(NCc3cccnc3N)nc(=O)n(CCc3c[nH]c4ccccc34)c2=O)cc1 [Cpd 119]	40	> 10 µM	–
COc1ccc(Cn2c(NCc3ccncc3)nc(=O)n(Cc3ccc(OC)cc3)c2=O)cc1 [Cpd 41]	72	1.06 µM	–
COc1ccc(Cn2c(=O)nc(NCc3c(C)cc(C)nc3N)n(Cc3ccc4c(c3)CCO4)c2=O)cc1 [Cpd 157]	92	0.004 µM and 0.011 µM	96%
COc1ccc(Cn2c(NCc3cccnc3N)nc(=O)n(Cc3cccc(F)c3)c2=O)cc1 [Cpd 55]	44	> 10 µM	–
COc1ccc(Cn2c(NCc3cnc(C)cc3C)nc(=O)n(Cc3ccc(C(F)(F)F)cc3)c2=O)cc1 [Cpd 110]	48	9.07 µM	–
COc1ccc(Cn2c(NCc3cccc(N)n3)nc(=O)n(Cc3ccc(OC)cc3)c2=O)cc1 [Cpd 115, 6-[(6-Amino-pyridin-2-ylmethyl)-amino]-1,3-bis-(4-methoxy-benzyl)-1H-[1,3,5]triazine-2,4-dione]	98	0.244 µM	–
COc1ccc(Cn2c(NCc3cnc(C)cc3C)nc(=O)n(Cc3ccc(OC(F)F)cc3)c2=O)cc1 [Cpd 83]	82	0.668 µM	–
Cc1cc(C)c(CNc2nc(=O)n(Cc3ccc(-c4csnn4)cc3)c(=O)n2Cc2ccc(OC(F)F)cc2)cn1 [Cpd 168]	68	1.52 µM	–
COc1ccc(Cn2c(=O)nc(NCc3cccnc3N)n(Cc3ccccc3OC)c2=O)cc1 [Cpd 92]	58	5.16 µM	–
Nc1cc(Cn2c(=O)nc(NCc3cccnc3N)n(Cc3ccc4c(c3)CCO4)c2=O)ccc1O [Cpd 269]	22	> 10 µM	–
COc1ccc(Cn2c(=O)nc(NCc3cccnc3N)n(Cc3ccc(OC(F)F)cc3)c2=O)cc1 [Cpd 35, 6-[(2-Amino-pyridin-3-ylmethyl)-amino]-1-(4-difluoromethoxy-benzyl)-3-(4-methoxy-benzyl)-1H-[1,3,5]triazine-2,4-dione]	85	0.034 µM	–
Cc1cc(C)c(CNc2nc(=O)n(Cc3ccc4c(c3)OCO4)c(=O)n2Cc2ccc(OC(F)F)cc2)c(N)n1 [Cpd 219]	94	0.136 µM and 0.158 µM	97%
Cc1cc(C)c(CNc2nc(=O)n(CCOc3ccc(F)cc3)c(=O)n2Cc2ccc(OC(F)F)cc2)cn1 [Cpd 167]	65	2.62 µM	–
COc1ccc(Cn2c(NCc3cnc(C)cc3C)nc(=O)n(Cc3ccc4c(c3)OCO4)c2=O)cc1 [Cpd 207]	92	0.461 µM and 0.471 µM	93%
COCCNc1ncccc1CNc1nc(=O)n(CCOc2ccccc2)c(=O)n1Cc1ccc(OC)cc1 [Cpd 72]	81	1.17 µM	–
COc1ccc(Cn2c(NCc3c(COCc4ccccc4)cc(C)nc3N)nc(=O)n(Cc3ccc(OC)cc3)c2=O)cc1 [Cpd 250]	48	8.63 µM	–
CCCNc1ncccc1CNc1nc(=O)n(Cc2ccc(F)cc2)c(=O)n1Cc1ccc(OC)cc1 [Cpd 15]	95	0.327 µM	–
COc1ccc(Cn2c(=O)nc(NCc3cccnc3N)n(Cc3ccc(OC)cc3F)c2=O)cc1 [Cpd 205]	102	0.106 µM	–
COc1ccc(Cn2c(NCc3cccnc3NCCN)nc(=O)n(Cc3ccc(F)cc3)c2=O)cc1 [Cpd 30]	68	1.24 µM	–
COc1ccc(Cn2c(NCc3ccc(N)cn3)nc(=O)n(Cc3ccc(Cl)cc3)c2=O)cc1 [Cpd 4]	94	0.357 µM	–
COc1ccc(Cn2c(=O)nc(NCc3cnc(C)cc3C)n(Cc3cccc(OC(F)(F)F)c3)c2=O)cc1 [Cpd 99]	91	0.1 µM	–
